# Source: publication PMC12346692, “SUL-150 Limits Vascular Remodeling and Ventricular Failure in Pulmonary Arterial Hypertension” (International Journal of Molecular Sciences, 2025)
# Marks after values point to notes of the source that are not given here.
# Assays:
# [1] = test system: right ventricle of PAH rats; experiment: Right ventricle mtDNA copy number, radical scavenging, lipid peroxidation and ATP; settings: ~6 mg·kg^−1·day^−1 i.p. minipump, 28 days
# [2] = test system: PGC1α, mtTFA, PINK1, Parkin; experiment: Immunoblotting of right ventricle for mitogenesis and mitophagy markers; type: in vivo, rat; settings: PAH rats, ~6 mg·kg^−1·day^−1 i.p. minipump, 28 days; result in words
# Description: Protein lysates were prepared from the right ventricle using RIPA buffer (ThermoFisher, Waltham, MA, USA) and supplemented with 0.5% proteinase inhibitor cocktail (Sigma-Aldrich, St. Louis, MO, USA) and 0.5% Halt™ phosphatase inhibitor (ThermoFisher, Waltham, MA, USA). […] Twenty micrograms of total protein per sample was loaded on mini-PROTEAN precast gradient gels (4–15% denaturing SDS–polyacrylamide gel; Bio-Rad, Hercules, CA, USA), separated by gel electrophoresis, and blotted onto nitrocellulose membrane using the Trans-Blot turbo system (Bio-Rad, Hercules, CA, USA) according to standard protocols. Blots were blocked with 5% bovine serum albumin in 20 mM Tris-HCl (pH 7.4) at room temperature for 30 min and incubated at 4 °C overnight with primary antibodies to mtTFA (sc-166965, Santa Cruz Biotechnology, Dallas, TX, USA), PGC1α (NBP1-04676, Bio-Techne, Abingdon, UK), PINK1 (BC100-494, Bio-Techne, Abingdon, UK), Parkin (sc-32282, Santa Cruz Biotechnology, Dallas, TX, USA), or Tubulin (Sigma-Aldrich, St. Louis, MO, USA), all at a dilution of 1:500. Alkaline phosphatase-conjugated secondary antibodies and NBT/BCIP (Bio-Rad, VA, USA) were used for detection. Densitometric analysis was performed using Totallab 120 (Nonlinear Dynamics, Newcastle upon Tyne, UK).
# [3] = test system: α1-adrenoceptor; design: method as in PMID 30626882; settings: no test in this paper; α1 antagonism attributed; cited from earlier work
# [4] = test system: pulmonary artery rings; experiment: Ex vivo myography of pulmonary artery rings, acute SUL-150 pre-incubation, phenylephrine-induced vasoconstriction; design: species or system rat; settings: 10^−4 M SUL-150 pre-incubation
# Description: The fourth-degree branching intralobar pulmonary arteries were carefully dissected under a Leica S4E stereomicroscope as described before. Arterial ring segments (2 mm length) were mounted in a Mulvany-type wire myograph system (model #610M, Danish Myo Technology, Aarhus, Denmark) using Ø40 µm steel wire. Rings were preserved in myography chambers filled with aerated Krebs buffer (pH 7.4) at 37 °C. After 20 min equilibration, rings were stretched to 1.8 kPa using the DMT Normalization Procedure and allowed to equilibrate for an additional 20 min. Analogue–digital signal conversion was performed using PowerLab 8/30, and a myogram was recorded in PowerLab Chart v 5.3 (AD Instruments, Oxford, UK). To assess the acute effects of SUL-150 on vasoconstriction, arterial rings were pre-constricted with 60 mM KCl and, following washout and stabilization, incubated with vehicle (0.1% DMSO) or SUL-150 (10^−4 M) for 20 min. Next, constriction responses to phenylephrine (phenylephrine, Sigma-Aldrich, St. Louis, MO, USA) were recorded in the dose range of 3 × 10^−9 to 3 × 10^−5 M. To assess the chronic effects of SUL-150 treatment, a similar protocol was followed, leaving out the preincubation with vehicle or SUL-150. Isometric responses were calculated as % of maximal KCl-induced constriction, and dose–response curves were recorded to determine the efficacy (Emax) and potency (EC50) of phenylephrine to induce vasoconstriction.
# [5] = test system: PAH rats; experiment: Heart weights and Fulton index at sacrifice; type: in vivo, rat; settings: ~6 mg·kg^−1·day^−1 i.p. minipump, 28 days
# Description: Rats were euthanized under 3–5% isoflurane anesthesia by exsanguination by aorta puncture. Hearts, lungs, and pulmonary arteries were harvested and processed for further analyses. The hearts were weighed and dissected into the left atrium, ventricle, right atrium, and ventricle and septum, which were all individually weighted. The Fulton Index was calculated as: Fulton Index=RV/(LV+IVS) , wherein RV and LV are right and left ventricular weights, respectively, and IVS is the weight of the interventricular septum. The right ventricle was cut in half, and one half was fixed in 3.6% formalin and embedded in paraffin. The other half was snap frozen in liquid nitrogen. The left lung lobe was fixed by filling the airways with 3.6% formalin and embedded in paraffin. The right lung lobe was snap frozen in liquid nitrogen.
# [6] = test system: neonatal rat cardiomyocytes; experiment: In vitro hypertrophy reporter assay in phenylephrine-treated cardiomyocytes; type: cell-based
# Description: Cultures of neonatal rat cardiomyocytes were prepared from 1–3-day-old Wistar rats and adenovirally transformed with hypertrophy reporter construct as described elsewhere. Cardiomyocytes were pre-incubated with SUL-150 (3 × 10^−5 M) or vehicle for 30 min and subsequently stimulated with phenylephrine in the dose range of 10^−8 to 10^−4 M for 24 h. Cells were lysed in passive lysis buffer (Promega, Madison, WI, USA), and […] intensity of the lysate was recorded in an EnVision 2102 plate reader (Perkin Elmer, Waltham, MA, USA).
smiles,measurement,setting,value
"Cc1c(C)c2c(c(C)c1O)CC[C@](C)(C(=O)N1CCNCC1)O2 [SUL-150, (R)-(6-hydroxy-2,5,7,8-tetramethylchroman-2-yl)(piperazin-1-yl)methanone]",ATP level of the right ventricle,[1],272.2 ± 26.6 pmol/mg
same,endogenous radical scavenging activity in right ventricle,[1]; result in words,maintained
same,lipid peroxidation level in right ventricle,[1]; result in words,decreased lipid peroxidation level to those of sham rats
same,right ventricular protein expression of PGC1α and mtTFA,[2],did not alter
same,right ventricular protein expression of PINK1 and Parkin,[2],maintained the expression
same,pA2 as an α1-adrenoceptor antagonist,[3],≈ 5.4
same,Emax of phenylephrine-induced vasoconstriction after SUL-150 pre-incubation,[4]; pulmonary artery rings of PAH rats (day 21 post-MCT),11.03 % of max
same,Emax of phenylephrine-induced vasoconstriction after SUL-150 pre-incubation,"[4]; pulmonary artery rings of sham rats, % of maximal KCl-induced constriction",15.6 % of max
same,Heart weight (relative to body weight),[5],4.37 ± 0.66 ^a mg·g^−1
same,IVS weight (relative to body weight),[5],0.81 ± 0.22 mg/g
same,LA weight (relative to body weight),[5],0.23 ± 0.11 ^a mg·g^−1
same,LV weight (relative to body weight),[5],1.60 ± 0.29 ^a mg·g^−1
same,RA weight (relative to body weight),[5],0.38 ± 0.12 ^a mg·g^−1
same,RV weight (relative to body weight),[5],1.23 ± 0.31 ^a mg·g^−1
same,Fulton Index,[5]; RV/(LV+IVS),0.51 ± 0.09 ^a
same,Emax of phenylephrine in hypertrophy reporter with SUL-150 co-treatment,"[6]; SUL-150 3 × 10^−5 M pre-incubated 30 min, phenylephrine 24 h",2.36 RFU
same,reduction in phenylephrine efficacy in hypertrophy reporter,[6]; SUL-150 3 × 10^−5 M versus vehicle,40%
